Earlier results in patent US20030207327A1, “Coisogenic eukaryotic cell collections” (priority 2001, published 2003).
Numbering of substitutions follows the chain as printed. Read-outs that look alike come from different tables or passages of the source. One block for each compound: values may come before it.

Key:
[1] = target: T1, TPMT (thiopurine S-methyltransferase) (Homo sapiens, UniProt P51580, A80P); settings: TPMT variant G238C, Ala80Pro; OMIM 187680
T1 sequence (P51580 1-245 A80P): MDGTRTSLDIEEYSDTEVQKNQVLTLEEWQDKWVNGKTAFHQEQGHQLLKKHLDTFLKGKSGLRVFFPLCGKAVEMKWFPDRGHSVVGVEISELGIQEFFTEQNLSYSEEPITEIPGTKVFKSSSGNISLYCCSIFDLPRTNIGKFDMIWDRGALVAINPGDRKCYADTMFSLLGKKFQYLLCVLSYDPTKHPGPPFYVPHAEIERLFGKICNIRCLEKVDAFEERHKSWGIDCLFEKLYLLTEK

[2] = target: T2, TPMT (thiopurine S-methyltransferase) (Homo sapiens, UniProt P51580, R215H); settings: TPMT variant G644A, Arg215His; OMIM 187680
T2 sequence (P51580 1-245 R215H): T1 sequence (P51580 1-245 A80P) with P80A, R215H

[3] = target: T3, TPMT (thiopurine S-methyltransferase) (Homo sapiens, UniProt P51580, A154T); settings: TPMT variant G460A, Ala154Thr; OMIM 187680
T3 sequence (P51580 1-245 A154T): T1 sequence (P51580 1-245 A80P) with P80A, A154T

[4] = target: T4, TPMT (thiopurine S-methyltransferase) (Homo sapiens, UniProt P51580, Y240C); settings: TPMT variant A719G, Tyr240Cys; OMIM 187680
T4 sequence (P51580 1-245 Y240C): T1 sequence (P51580 1-245 A80P) with P80A, Y240C

CYP2D6 = settings: protein variant Gly169Ter; poor drug metabolizer; OMIM 124030
[5] = target: ABCB1 (MDR1, P-glycoprotein) (Homo sapiens, UniProt P08183, G185V)
[6] = test system: beta tubulin (Isoform M40)

ABCB1 (MDR1, P-glycoprotein), sequence (P08183 whole entry G185V, canonical isoform): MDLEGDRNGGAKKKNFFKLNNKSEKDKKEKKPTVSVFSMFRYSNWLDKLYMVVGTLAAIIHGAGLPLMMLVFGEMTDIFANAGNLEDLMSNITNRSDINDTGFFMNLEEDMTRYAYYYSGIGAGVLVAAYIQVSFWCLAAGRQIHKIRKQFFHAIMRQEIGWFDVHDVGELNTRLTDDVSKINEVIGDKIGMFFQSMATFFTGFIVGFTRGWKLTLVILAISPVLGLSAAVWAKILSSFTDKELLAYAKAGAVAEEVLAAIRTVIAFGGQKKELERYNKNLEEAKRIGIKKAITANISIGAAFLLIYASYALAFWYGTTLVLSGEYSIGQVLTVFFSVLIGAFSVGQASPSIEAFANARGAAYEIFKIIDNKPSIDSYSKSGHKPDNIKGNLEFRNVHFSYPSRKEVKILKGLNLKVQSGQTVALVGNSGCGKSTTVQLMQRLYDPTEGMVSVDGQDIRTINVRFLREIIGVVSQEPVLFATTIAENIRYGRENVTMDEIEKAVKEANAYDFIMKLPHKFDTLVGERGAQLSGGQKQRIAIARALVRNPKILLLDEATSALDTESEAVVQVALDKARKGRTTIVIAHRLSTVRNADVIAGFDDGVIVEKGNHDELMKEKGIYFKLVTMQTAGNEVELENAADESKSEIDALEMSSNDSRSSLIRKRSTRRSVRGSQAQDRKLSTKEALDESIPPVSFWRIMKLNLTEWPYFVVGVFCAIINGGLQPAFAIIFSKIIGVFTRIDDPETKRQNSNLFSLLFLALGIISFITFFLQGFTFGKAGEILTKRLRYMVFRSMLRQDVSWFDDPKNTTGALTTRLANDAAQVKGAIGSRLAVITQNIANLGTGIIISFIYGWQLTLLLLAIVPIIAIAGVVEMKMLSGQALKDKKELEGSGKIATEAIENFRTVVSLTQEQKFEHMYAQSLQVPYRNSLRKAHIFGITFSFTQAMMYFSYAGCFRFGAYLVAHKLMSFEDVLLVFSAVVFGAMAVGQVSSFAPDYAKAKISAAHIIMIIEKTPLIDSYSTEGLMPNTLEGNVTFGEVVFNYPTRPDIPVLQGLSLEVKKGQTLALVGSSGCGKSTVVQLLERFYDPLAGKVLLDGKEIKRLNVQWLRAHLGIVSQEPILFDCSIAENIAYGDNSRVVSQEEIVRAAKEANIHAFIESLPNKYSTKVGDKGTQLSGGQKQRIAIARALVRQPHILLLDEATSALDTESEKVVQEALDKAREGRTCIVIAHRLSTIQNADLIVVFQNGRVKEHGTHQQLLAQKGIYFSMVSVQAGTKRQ

Phenotype [1]: sensitivity
Phenotype [2]: sensitivity
Phenotype [3]: sensitivity
Phenotype [4]: sensitivity
SMILES: Sc1ncnc2nc[nH]c12 [6-mercaptopurine]

Phenotype (CYP2D6): Debrisoquine, poor
SMILES: N=C(N)N1CCc2ccccc2C1 [Debrisoquine]

SMILES: COc1cc2c(c(OC)c1OC)-c1ccc(OC)c(=O)cc1[C@@H](NC(C)=O)CC2 [colchicine]
Phenotype: colchicine resistance [5]: increased

SMILES: CC(=O)O[C@H]1C(=O)[C@@]2(C)[C@H]([C@H](OC(=O)c3ccccc3)[C@]3(O)C[C@H](OC(=O)[C@H](O)[C@@H](NC(=O)c4ccccc4)c4ccccc4)C(C)=C1C3(C)C)[C@]1(OC(C)=O)CO[C@@H]1C[C@@H]2O [paclitaxel]
Phenotype (response to paclitaxel) ([6]; beta tubulin variant Ala364Thr (G1092A)): resistance
Phenotype (response to paclitaxel) ([6]; beta tubulin variant Phe270Val (T810G)): resistance
